For orientation: inhibition means the relative decrease from the control value, in per cent. In general, GI50 refers to the concentration giving 50% growth inhibition. Low readings indicate more potent growth inhibition, high ones less potent growth inhibition. The term melting point denotes the temperature, or range, at which the solid turns liquid.

Molecules are shown by their SMILES.

Data set [1] deals with TNF-α. The data set is described as follows: In vitro measurement of TNF-α in human PBMC (LPS stimulated). It counts as cell-based. The gist of the method: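 Healthy-volunteer PBMC (0.5 million/well) in RPMI were pre-incubated with compound 15 min at 37 °C. They were then stimulated with E. coli B4 LPS 1 μg/ml for 18 h at 37 °C, 5% CO2. TNF-α in culture medium was measured by ELISA.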

Data set [2] deals with TNF-α. In words: LPS induced sepsis for measurement of TNF-α inhibition in mice. It counts as in vivo. Conditions: 50 mg/kg, oral, mice, serum 90 minutes after LPS. The method, then: LPS Induced Sepsis for Measurement of TNF-α Inhibition in Mice
The LPS induced sepsis model in mice was performed as described by Les sekut et al (J Lab Clin Med 1994; 124:813-20). Female Swiss albino mice were selected and the body weights were equivalent within each group. The mice were fasted for 20 hours with free access to water. The mice were dosed orally with the test compound suspended in vehicle containing 0.5% Tween 80 in 0.25% Carboxy-methylcellulose sodium salt. The control mice were administered the vehicle alone. After 30 minutes of oral dosing, mice were injected with 500 μg of Lipopolysaccharide (Escherichia coli, LPS: B4 from Siga) in phosphate buffer saline solution into the intraperitoneal cavity of the mice. After 90 minutes of LPS administration mice were bled via retro-orbital sinus puncture. Blood samples were stored overnight at 4° C. Serum samples were collected by centrifuging the samples at 4000 rpm for 15 minutes at 4° C. Immediately the serum samples were analysed for TNF-α levels using commercially available mouse TNF-α ELISA kit (Amersham Biosciences) and assay was performed by the manufacturer instruction.
ED50 Measurement of TNF alpha Inhibition in Mice Sepsis Model

Data set [3] deals with Male wistar rats. In words: Carrageenan induced paw edema test in rat. It counts as in vivo. Conditions: oral, 3 hours after carrageenan. How it is done:
Carrageenan Induced Paw Edema Test in Rat
The carrageenan paw edema test was performed as described by Winter et al (Proc. Soc. Exp. Biol. Med, 111, 544, 1962). Male wistar rats were selected with body weights equivalent within each group. The rats were fasted for 18 hours with free access to water. The rats were dosed orally with the test compound suspended in the vehicle containing 0.25% carboxymethylcellulose and 0.5% Tween 80. The control rats were administered with vehicle alone. After an hour, the rats were injected with 0.1 ml of 1% Carrageenan solution in 0.9% saline into the sub-plantar surface of the right hind paw. Paw volume was measured using digital plethysmograph before and after 3 hours of carrageenan injection. The average of foot swelling in drug treated animals was compared with that of the control animals. Anti-inflammatory activity was expressed as the percentage inhibition of edema compared with control group [Arzneim-Forsch/Drug Res., 43 (I), 1, 44-50, 1993; Representative results of edema inhibition are shown in the Table VI.
In general terms: Carrageenan injected into the paw causes an acute inflammation.

The subject of data set [4] is NCI-H460. In words: Anti-cancer screen (MTT), NCI-H460. It is filed as cell-based. Conditions: Homo sapiens, NCI-H460, 48 hours.
In data set [5] the test system is DU-145. In words: Anti-cancer screen (MTT), DU-145. The note with it: Homo sapiens, DU-145, 48 hours. It counts as cell-based.
Data set [6] relates to HCT-116. In words: Anti-cancer screen (MTT), HCT-116. It counts as cell-based. Conditions: Homo sapiens, HCT-116, 48 hours.

Consider `CNS(=O)(=O)c1ccc(-c2c(Cl)nc(C(F)(F)F)nc2-c2ccc(S(C)(=O)=O)cc2)cc1` [Example 4, 4-{4-Chloro-6-[4-(methylsulfonyl)phenyl]-2-(trifluoromethyl)pyrimidin-5-yl}-N-methylbenzenesulfonamide], for which the melting point lay within 226 to 230 °C. Moreover, the inhibition at 1 µM in data set [1] (1 μM, NA = No activity, read-out: TNF-α Inhibition (%) at Conc. (1 μM)) turned out to be 30%. In addition, the inhibition at 10 µM in data set [1] (10 μM, read-out: TNF-α Inhibition (%) at Conc. (10 μM)) was found to be 107%. In addition, the “TNF-α Inhibition (%) at 50 mg/kg” value in data set [2] was 38.37%. For the same molecule, the “Inhibition of edema (%) at 5 mg/kg” value in data set [3] is 17.12%. The same molecule displayed a 50% growth inhibitory concentration (GI50) in data set [4] of 1.65 µM. In data set [5], this molecule registered a concentration for 50% growth inhibition (GI50) of 1.93 µM. In addition, the 50% growth inhibitory concentration (GI50) in data set [6] came out at 2 µM.

(Values after patent publication US7863446B2, “Heterocycles” (Orchid Research Laboratories Limited, priority 2006, dated 2011).)
